The values that follow come from ChEMBL document CHEMBL1141746, “Three new diterpenes from the marine soft coral Lobophytum crassum” (1998).

Assay [1] relates to Microbotryum violaceum. In words: Antimicrobial activity against Ustilago violacea at 50 ug by agar plate diffusion assay. The assay is classed as functional. To be noted: read-out: IZ.
Assay [2] deals with Tyrosine-protein kinase Lck (Homo sapiens) (UniProt P06239). The experiment in a line: Inhibition of tyrosine kinase lckp56 by ELISA. (An ELISA detects its analyte on a solid surface through an enzyme-linked reagent.)
Chain of Tyrosine-protein kinase Lck (Homo sapiens) (P06239 2-509 limits assumed): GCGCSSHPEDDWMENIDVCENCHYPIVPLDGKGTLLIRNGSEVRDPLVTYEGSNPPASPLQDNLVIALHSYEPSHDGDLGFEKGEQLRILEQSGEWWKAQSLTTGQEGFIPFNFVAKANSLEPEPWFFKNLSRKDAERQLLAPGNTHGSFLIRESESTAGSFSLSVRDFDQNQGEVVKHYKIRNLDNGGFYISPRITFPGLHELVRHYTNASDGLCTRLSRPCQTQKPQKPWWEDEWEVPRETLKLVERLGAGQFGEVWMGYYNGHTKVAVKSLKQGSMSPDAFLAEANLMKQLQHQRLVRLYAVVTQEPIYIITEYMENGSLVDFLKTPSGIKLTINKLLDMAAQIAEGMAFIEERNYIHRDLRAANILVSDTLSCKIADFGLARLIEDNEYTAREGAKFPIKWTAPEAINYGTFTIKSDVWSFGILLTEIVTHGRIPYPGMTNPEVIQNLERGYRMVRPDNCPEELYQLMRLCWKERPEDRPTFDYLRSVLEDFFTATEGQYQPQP
Assay [3] has as its target Human immunodeficiency virus type 1 reverse transcriptase (Human immunodeficiency virus 1) (UniProt Q72547). In words: Inhibition of HIV1 reverse transcriptase by ELISA.
Assay [4] deals with [Chlorella] fusca. The experiment in a line: Antimicrobial activity against Chlorella fusca at 50 ug by agar plate diffusion assay. The assay is classed as functional. As to conditions: Scenedesmus fuscus; read-out: IZ.

Active and inactive are the calls of the source. The rule behind the calls is not given here.

Regarding `COC(=O)C(C)/C1=C/C=C(\C)CC[C@H]2O[C@]2(C)CC/C=C(\C)CC1` (some centres not stated), the zone of inhibition at 50 µg/disc in assay [1] amounted to 1 mm. In addition, the outcome in assay [2] and in assay [3] was inactive.

In the case of `CC1=C2CC/C(C)=C/CC[C@@]3(C)O[C@H]3CC/C(C)=C/[C@@H]2OC1`, the zone of inhibition at 50 µg/disc in assay [4] and in assay [1] was 3 mm each time. For the same compound, the result in assay [2] and in assay [3] was inactive.
